What was measured:
[1] = Combination therapy (ALA photodynamic therapy plus alefacept) in patients with psoriasis; type: in vivo, patient; details: for alleviation of symptoms: then reduced course of alefacept
Basal Cell Carcinoma = assay: Combination therapy (ALA photodynamic therapy plus imiquimod) in a patient with Basal Cell Carcinoma; type: in vivo; details: Example 3: ALA topical cream, red light several hours later, then a course of imiquimod
Description: A patient with a Basal Cell Carcinoma is administered ALA in the form of a topical cream, which is applied to the affected areas. Several hours after administration of the ALA, the patient is exposed to an activating red light. Subsequently, the patient is administered a course of imiquimod therapy.

[2] = Combination therapy (ALA photodynamic therapy plus imiquimod) in a patient with warts; type: in vivo; details: Example 7: ALA topical cream, white light several hours later, then reduced course of imiquimod
Description: A patient with warts is administered ALA in the form of a topical cream, which is applied to the affected area. Several hours after administration of the ALA, the patient is exposed to white light. Subsequently, the patient is administered a reduced course of imiquimod therapy.

[3] = cited from earlier work

NCC(=O)CCC(=O)O [ALA, 5-Amino-4-oxopentanoic acid]
improvement of psoriasis ([1]; Example 1: several patients, topical ALA, then Intense Pulsed Light (IPL), then alefacept as normally done): almost immediate improvements
return of psoriatic symptoms after cessation of alefacept therapy ([1]; Example 2: topical ALA and blue light after a completed alefacept treatment cycle): less return of their psoriatic symptoms
alleviation of symptoms ([1]; Example 4: ALA topical cream, activating light several hours later): alleviation of symptoms soon after receiving the treatment
alleviation of symptoms ([1]; Example 5: ALA i.v. injection, 5 J/cm^2 of 417 nm blue light after one to three hours): alleviation of symptoms soon after receiving the treatment
alleviation of symptoms ([1]; Example 6: oral ALA, 10 J/cm^2 of 417 nm blue light after one to three hours): alleviation of symptoms soon after receiving the treatment
resolution of the cancerous lesion (Basal Cell Carcinoma): rapid and complete resolution of the cancerous lesion
alleviation of symptoms [2]: alleviation of symptoms soon after receiving the treatment
solubility in water [3]: water soluble

Source: patent US20090192071A1, “USE OF PHOTODYNAMIC THERAPY TO ENHANCE TREATMENT WITH IMMUNO-MODULATING AGENTS” (DUSA PHARMACEUTICALS, INC., priority 2004, published 2009)
